SMILES strings stand for the structures.

T1 sequence (A3EZJ3 whole entry): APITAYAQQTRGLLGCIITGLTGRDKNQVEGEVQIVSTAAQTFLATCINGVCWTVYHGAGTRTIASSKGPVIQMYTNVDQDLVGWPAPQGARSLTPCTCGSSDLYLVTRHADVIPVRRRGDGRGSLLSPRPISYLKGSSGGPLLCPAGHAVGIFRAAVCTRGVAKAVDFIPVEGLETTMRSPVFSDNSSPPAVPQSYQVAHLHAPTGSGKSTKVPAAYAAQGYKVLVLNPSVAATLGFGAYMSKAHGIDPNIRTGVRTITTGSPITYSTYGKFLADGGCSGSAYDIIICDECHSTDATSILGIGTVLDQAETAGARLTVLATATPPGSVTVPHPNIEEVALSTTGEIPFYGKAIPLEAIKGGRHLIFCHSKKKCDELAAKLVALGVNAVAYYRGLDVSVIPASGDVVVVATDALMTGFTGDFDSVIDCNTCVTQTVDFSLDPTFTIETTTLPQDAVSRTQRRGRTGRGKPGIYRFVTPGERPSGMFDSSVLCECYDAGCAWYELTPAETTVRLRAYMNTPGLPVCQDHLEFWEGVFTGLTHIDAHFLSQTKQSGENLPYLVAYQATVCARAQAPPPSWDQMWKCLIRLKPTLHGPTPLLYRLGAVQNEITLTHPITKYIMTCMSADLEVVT

The first experiment addresses T1, NS3 (Hepatitis C virus, UniProt A3EZJ3). In words: Compound was evaluated for its binding affinity against NS3 protease. The arrangement: species or system Hepacivirus hominis.
As for `CCCN(NC(=O)[C@H]1CCCN1C(=O)[C@@H](NC(=O)[C@@H](NC(=O)[C@H](CC(=O)O)NC(=O)[C@H](CCC(=O)O)NC(=O)[C@@H](NC(=O)[C@H](CC(=O)O)NC(C)=O)[C@@H](C)O)C(C)C)C(C)C)C(=O)Oc1ccc([N+](=O)[O-])cc1`, the Ki amounted to 3 µM.

Another experiment addresses T1, NS3. In words: Binding affinity against Hepatitis C virus NS3 protease. The arrangement: species or system Hepacivirus hominis.
The compound `CCCN(NC(=O)[C@H]1CCCN1C(=O)[C@@H](NC(=O)[C@@H](NC(=O)[C@H](CC(=O)O)NC(=O)[C@H](CCC(=O)O)NC(=O)[C@@H](NC(=O)[C@H](CC(=O)O)NC(C)=O)[C@@H](C)O)C(C)C)C(C)C)C(=O)OC(Cl)C(Cl)(Cl)Cl` (stereo partly drawn) showed a Ki of 0.2 µM.

As to `CCCN(NC(=O)[C@H]1CCCN1C(=O)[C@@H](NC(=O)[C@@H](NC(=O)[C@H](CC(=O)O)NC(=O)[C@H](CCC(=O)O)NC(=O)[C@@H](NC(=O)[C@H](CC(=O)O)NC(C)=O)[C@@H](C)O)C(C)C)C(C)C)C(=O)Oc1ccc([N+](=O)[O-])cc1`, the Ki was determined as 2 µM.

Regarding `CCCN(NC(=O)[C@H]1CCCN1C(=O)[C@@H](NC(=O)[C@@H](NC(=O)[C@H](CC(=O)O)NC(=O)[C@H](CCC(=O)O)NC(=O)[C@@H](NC(=O)[C@H](CC(=O)O)NC(C)=O)[C@@H](C)O)C(C)C)C(C)C)C(=O)OCc1ccccc1`, the Ki amounted to 80 µM.

As to `CCCN(NC(=O)[C@H]1CCCN1C(=O)[C@@H](NC(=O)[C@@H](NC(=O)[C@H](CC(=O)O)NC(=O)[C@H](CCC(=O)O)NC(=O)[C@@H](NC(=O)[C@H](CC(=O)O)NC(C)=O)[C@@H](C)O)C(C)C)C(C)C)C(=O)c1ccc(/N=N\c2ccc([N+](=O)[O-])cc2)cc1`, the Ki was greater than 100 µM.

On to `CCCN(NC(=O)[C@H]1CCCN1C(=O)[C@@H](NC(=O)[C@@H](NC(=O)[C@H](CC(=O)O)NC(=O)[C@H](CCC(=O)O)NC(=O)[C@@H](NC(=O)[C@H](CC(=O)O)NC(C)=O)[C@@H](C)O)C(C)C)C(C)C)C(=O)Sc1ccc(Cl)cc1`, for which the Ki came out at 100 µM.

Take `CCCN(NC(=O)[C@H]1CCCN1C(=O)[C@@H](NC(=O)[C@@H](NC(=O)[C@H](CC(=O)O)NC(=O)[C@H](CCC(=O)O)NC(=O)[C@@H](NC(=O)[C@H](CC(=O)O)NC(C)=O)[C@@H](C)O)C(C)C)C(C)C)C(=O)OC(C)(C)C(Cl)(Cl)Cl`: the Ki is greater than 100 µM.

On to `CCCN(NC(=O)[C@H]1CCCN1C(=O)[C@@H](NC(=O)[C@@H](NC(=O)[C@H](CC(=O)O)NC(=O)[C@H](CCC(=O)O)NC(=O)[C@@H](NC(=O)[C@H](CC(=O)O)NC(C)=O)[C@@H](C)O)C(C)C)C(C)C)C(=O)c1ccc(-c2ccccc2)cc1`, for which the Ki is greater than 100 µM.

`CCCN(NC(=O)[C@H]1CCCN1C(=O)[C@@H](NC(=O)[C@@H](NC(=O)[C@H](CC(=O)O)NC(=O)[C@H](CCC(=O)O)NC(=O)[C@@H](NC(=O)[C@H](CC(=O)O)NC(C)=O)[C@@H](C)O)C(C)C)C(C)C)C(=O)Oc1ccccc1[N+](=O)[O-]`: the Ki is 9 µM.

`CCCN(NC(=O)[C@H]1CCCN1C(=O)[C@@H](NC(=O)[C@@H](NC(=O)[C@H](CC(=O)O)NC(=O)[C@H](CCC(=O)O)NC(=O)[C@@H](NC(=O)[C@H](CC(=O)O)NC(C)=O)[C@@H](C)O)C(C)C)C(C)C)C(=O)c1cc(C(F)(F)F)cc(C(F)(F)F)c1` returned a Ki greater than 100 µM.

Compound `CCN(NC(=O)[C@H]1CCCN1C(=O)[C@@H](NC(=O)[C@@H](NC(=O)[C@H](CC(=O)O)NC(=O)[C@H](CCC(=O)O)NC(=O)[C@@H](NC(=O)[C@H](CC(=O)O)NC(C)=O)[C@@H](C)O)C(C)C)C(C)C)C(=O)OC(Cl)C(Cl)(Cl)Cl` (stereo partly drawn) registered a Ki of 0.9 µM.

`CCCN(NC(=O)[C@H]1CCCN1C(=O)[C@@H](NC(=O)[C@@H](NC(=O)[C@H](CC(=O)O)NC(=O)[C@H](CCC(=O)O)NC(=O)[C@@H](NC(=O)[C@@H](N)CC(=O)O)[C@@H](C)O)C(C)C)C(C)C)C(=O)N[C@@H](CO)C(=O)N[C@@H](CCSC)C(=O)N[C@@H](CO)C(=O)N[C@@H](Cc1ccc(O)cc1)C(=O)N[C@H](C(=O)N[C@@H](Cc1c[nH]c2ccccc12)C(=O)N[C@H](C(=O)NCC(=O)N[C@@H](CCCCN)C(=O)O)[C@@H](C)O)[C@@H](C)O` displayed a Ki of 20 µM.

On to `CCCN(NC(=O)[C@H]1CCCN1C(=O)[C@@H](NC(=O)[C@@H](NC(=O)[C@H](CC(=O)O)NC(=O)[C@H](CCC(=O)O)NC(=O)[C@@H](NC(=O)[C@H](CC(=O)O)NC(C)=O)[C@@H](C)O)C(C)C)C(C)C)C(=O)c1ccc(S(=O)(=O)F)cc1`, for which the Ki was greater than 100 µM.

For `CCCN(NC(=O)[C@H]1CCCN1C(=O)[C@@H](NC(=O)[C@@H](NC(=O)[C@H](CC(=O)O)NC(=O)[C@H](CCC(=O)O)NC(=O)[C@@H](NC(=O)[C@H](CC(=O)O)NC(C)=O)[C@@H](C)O)C(C)C)C(C)C)C(=O)N[C@@H](CO)C(=O)N[C@@H](CCSC)C(=O)N[C@@H](CO)C(=O)N[C@@H](Cc1ccc(O)cc1)C(=O)N[C@H](C(=O)N[C@@H](Cc1c[nH]c2ccccc12)C(=O)N[C@H](C(=O)NCC(=O)N[C@@H](CCCCN)C(=O)O)[C@@H](C)O)[C@@H](C)O`, the Ki is 10 µM.

Compound `CCCN(NC(=O)[C@H]1CCCN1C(=O)[C@@H](NC(=O)[C@@H](NC(C)=O)C(C)C)C(C)C)C(=O)Oc1ccc([N+](=O)[O-])cc1` registered a Ki of 100 µM.

With `CCCC(=O)N(CCC)NC(=O)[C@H]1CCCN1C(=O)[C@@H](NC(=O)[C@@H](NC(=O)[C@H](CC(=O)O)NC(=O)[C@H](CCC(=O)O)NC(=O)[C@@H](NC(=O)[C@H](CC(=O)O)NC(C)=O)[C@@H](C)O)C(C)C)C(C)C`, the Ki is greater than 100 µM.

Compound `CCCN(NC(=O)[C@H]1CCCN1C(=O)[C@@H](NC(=O)[C@@H](NC(=O)[C@H](CC(=O)O)NC(=O)[C@H](CCC(=O)O)NC(=O)[C@@H](NC(=O)[C@H](CC(=O)O)NC(C)=O)[C@@H](C)O)C(C)C)C(C)C)C(=O)CBr` had a Ki greater than 100 µM.

The target in the next experiment is T1, NS3. In words: Binding affinity against Hepatitis C virus NS3 protease was calculated as Kcat. The arrangement: species or system Hepacivirus hominis.
Consider `CCCN(NC(=O)[C@H]1CCCN1C(=O)[C@@H](NC(=O)[C@@H](NC(=O)[C@H](CC(=O)O)NC(=O)[C@H](CCC(=O)O)NC(=O)[C@@H](NC(=O)[C@H](CC(=O)O)NC(C)=O)[C@@H](C)O)C(C)C)C(C)C)C(=O)Oc1ccc([N+](=O)[O-])cc1`, for which the Ki was 0.5 min⁻¹.

The values above are taken from ChEMBL document CHEMBL1135259, “Azapeptides as inhibitors of the hepatitis C virus NS3 serine protease” (Bioorg Med Chem Lett, 2002).
